Laboratory results published in US9012655B2, “Antimicrobial/adjuvant compounds and methods” (Denouamed, Inc., priority 2011, dated 2015).

Key:
Assay in all cases: MIC panel of challenge pathogens (CLSI)
Assay type in all cases: cell-based
[1] = system: Staphylococcus aureus NRS382; details: Staphylococcus aureus NRS382
Procedure: (§1) The inocula for each bacterial strain were prepared by picking 5-10 distinct colonies from the culture plates and suspending them in the appropriate broth as per Clinical and Laboratory Standards Institute (CLSI) guidelines M07-A8, M24-A or M11-A7 as appropriate. The inoculum was resuspended by vigorous shaking on a vortex mixer for 15 s. The turbidity was then adjusted to McFarland standard 0.5 ([…]). The inoculum was further diluted in the appropriate media for MIC tests to give a final inoculum in each well of 2-8×10^5 CFU/ml. MICs were tested in the appropriate broth in accordance with the appropriate CLSI guidelines.
(§2) A stock solution of each compound was prepared at a concentration of 1.28 g/L in DMSO. The stock was further diluted in the appropriate media to give a top starting concentration of 128 mg/L in the assay. 100 μL of the appropriate media, as per CLSI guidelines, was dispensed into each well in columns 2-12. 200 μL of the each compound solution (at 256 mg/L) was dispensed into each well in column 1. 100 μL aliquots were pipetted from column 1 wells and dispensed into column 2 with a multichannel pipette (±2% coefficient of variation) thus diluting two-fold. 100 μL samples were then pipetted from column 2 wells and dispensed into column 3. The process was repeated through to column 10. The final 100 μL of diluted drug from column 10 was then discarded. Row 11 acted as a positive control (no compound, but organisms added), Row 12 acted as a negative control (no compound, and no organisms added).
(§3) 100 μL of the appropriate inoculum suspension in the appropriate media, as per CLSI guidelines, was added to the appropriate wells. […] All plates were incubated in the dark under aerobic or anaerobic conditions at 30-37° C. for 24-48 hours, according to the appropriate CLSI guideline. Plates were read visually 24-48 hours post inoculation. Endpoints of 100% inhibition were determined (CLSI interpretation endpoints following visual examination).
(§4) MIC50, MIC80, and 100% inhibition results are reported below in μg/mL in the following Tables, indicating each compound tested against a given species and strain: […]

[2] = system: Staphylococcus aureus AUR59 7005; details: Staphylococcus aureus AUR59 7005
Procedure: as §1, §2, §3, §4

[3] = system: Staphylococcus aureus NRS1 (ATCC700699); details: Staphylococcus aureus NRS1 (ATCC700699)
Procedure: as §1, §2, §3, §4

[4] = system: Staphylococcus epidermidis NRS7; details: Staphylococcus epidermidis NRS7
Procedure: as §1, §2, §3, §4

[5] = system: Staphylococcus aureus NRS383; details: Staphylococcus aureus NRS383
Procedure: as §1, §2, §3, §4

[6] = system: Staphylococcus aureus ATCC43300; details: Staphylococcus aureus ATCC43300
Procedure: as §1, §2, §3, §4

[7] = system: Staphylococcus aureus NRS2 (ATCC700698); details: Staphylococcus aureus NRS2 (ATCC700698)
Procedure: as §1, §2, §3, §4

[8] = system: Staphylococcus aureus EUP MRSA002; details: Staphylococcus aureus EUP MRSA002
Procedure: as §1, §2, §3, §4

[9] = system: Enterococcus faecalis ATCC51299; details: Enterococcus faecalis ATCC51299
Procedure: as §1, §2, §3, §4

[10] = system: Staphylococcus epidermidis NRS122; details: Staphylococcus epidermidis NRS122
Procedure: as §1, §2, §3, §4

[11] = system: Staphylococcus aureus AUR60 7005; details: Staphylococcus aureus AUR60 7005
Procedure: as §1, §2, §3, §4

[12] = system: Staphylococcus aureus AUR131 007035; details: Staphylococcus aureus AUR131 007035
Procedure: as §1, §2, §3, §4

Bacillus cereus NCTC6349 = details: Bacillus cereus NCTC6349
Procedure: as §1, §2, §3, §4

[13] = system: Staphylococcus aureus EUP MRSA004; details: Staphylococcus aureus EUP MRSA004
Procedure: as §1, §2, §3, §4

[14] = system: Staphylococcus aureus NRS384; details: Staphylococcus aureus NRS384
Procedure: as §1, §2, §3, §4

[15] = system: Staphylococcus aureus EUP SAU040; details: Staphylococcus aureus EUP SAU040
Procedure: as §1, §2, §3, §4

[16] = system: Enterococcus faecalis ATCC29212; details: Enterococcus faecalis ATCC29212
Procedure: as §1, §2, §3, §4

[17] = system: Enterococcus faecium ATCC700221; details: Enterococcus faecium ATCC700221
Procedure: as §1, §2, §3, §4

[18] = system: Staphylococcus aureus AUR58 7005; details: Staphylococcus aureus AUR58 7005
Procedure: as §1, §2, §3, §4

Cc1ccc(-c2cc(-c3nn[nH]n3)cc(-c3ccccc3-c3ccccc3)c2)c2ccccc12 [DNM0474]
16 µg/mL: 100% inhibition [10]
≦0.25 μg/mL: 100% inhibition (Bacillus cereus NCTC6349) | MIC50 (50%) (Bacillus cereus NCTC6349) | MIC80 (80%) (Bacillus cereus NCTC6349)
1 µg/mL: 100% inhibition [4] | MIC80 (80%) [4] | 100% inhibition [8] | MIC50 (50%) [8] | MIC80 (80%) [8] | 100% inhibition [9] | MIC50 (50%) [9] | MIC80 (80%) [9] | 100% inhibition [16] | MIC50 (50%) [16] | MIC80 (80%) [16] | 100% inhibition [17] | MIC50 (50%) [17] | MIC80 (80%) [17] | 100% inhibition [18] | MIC80 (80%) [18]
0.25 µg/mL: MIC50 (50%) [3] | 100% inhibition [15]
4 µg/mL: MIC50 (50%) [10]
8 µg/mL: MIC80 (80%) [10]
0.5 µg/mL: 100% inhibition [1] | MIC50 (50%) [1] | MIC80 (80%) [1] | 100% inhibition [2] | MIC50 (50%) [2] | MIC80 (80%) [2] | 100% inhibition [3] | MIC80 (80%) [3] | MIC50 (50%) [4] | 100% inhibition [5] | MIC50 (50%) [5] | MIC80 (80%) [5] | 100% inhibition [6] | MIC50 (50%) [6] | MIC80 (80%) [6] | 100% inhibition [7] | MIC50 (50%) [7] | MIC80 (80%) [7] | 100% inhibition [11] | MIC50 (50%) [11] | MIC80 (80%) [11] | 100% inhibition [12] | MIC50 (50%) [12] | MIC80 (80%) [12] | 100% inhibition [13] | MIC50 (50%) [13] | MIC80 (80%) [13] | 100% inhibition [14] | MIC50 (50%) [14] | MIC80 (80%) [14] | MIC50 (50%) [15] | MIC80 (80%) [15] | MIC50 (50%) [18]
